Test results as given in paper PMC3069647 (Journal of medicinal chemistry, 2011).

Key:
human Pgp [1] = target: T1, human Pgp (Homo sapiens, UniProt P08183); assay: Inhibition of Pgp-mediated Rhodamine 123 efflux in L5178 MDR1 cells; conditions: mouse T lymphoma L5178 MDR1 cells
Pgp = conditions: cited from earlier work
human Pgp [2] = assay: Inhibition of Pgp-mediated Rhodamine 123 efflux in L5178 MDR1 cells; conditions: mouse T lymphoma L5178 MDR1 cells
human Pgp [3] = target: T1, human Pgp

T1 sequence (P08183 whole entry): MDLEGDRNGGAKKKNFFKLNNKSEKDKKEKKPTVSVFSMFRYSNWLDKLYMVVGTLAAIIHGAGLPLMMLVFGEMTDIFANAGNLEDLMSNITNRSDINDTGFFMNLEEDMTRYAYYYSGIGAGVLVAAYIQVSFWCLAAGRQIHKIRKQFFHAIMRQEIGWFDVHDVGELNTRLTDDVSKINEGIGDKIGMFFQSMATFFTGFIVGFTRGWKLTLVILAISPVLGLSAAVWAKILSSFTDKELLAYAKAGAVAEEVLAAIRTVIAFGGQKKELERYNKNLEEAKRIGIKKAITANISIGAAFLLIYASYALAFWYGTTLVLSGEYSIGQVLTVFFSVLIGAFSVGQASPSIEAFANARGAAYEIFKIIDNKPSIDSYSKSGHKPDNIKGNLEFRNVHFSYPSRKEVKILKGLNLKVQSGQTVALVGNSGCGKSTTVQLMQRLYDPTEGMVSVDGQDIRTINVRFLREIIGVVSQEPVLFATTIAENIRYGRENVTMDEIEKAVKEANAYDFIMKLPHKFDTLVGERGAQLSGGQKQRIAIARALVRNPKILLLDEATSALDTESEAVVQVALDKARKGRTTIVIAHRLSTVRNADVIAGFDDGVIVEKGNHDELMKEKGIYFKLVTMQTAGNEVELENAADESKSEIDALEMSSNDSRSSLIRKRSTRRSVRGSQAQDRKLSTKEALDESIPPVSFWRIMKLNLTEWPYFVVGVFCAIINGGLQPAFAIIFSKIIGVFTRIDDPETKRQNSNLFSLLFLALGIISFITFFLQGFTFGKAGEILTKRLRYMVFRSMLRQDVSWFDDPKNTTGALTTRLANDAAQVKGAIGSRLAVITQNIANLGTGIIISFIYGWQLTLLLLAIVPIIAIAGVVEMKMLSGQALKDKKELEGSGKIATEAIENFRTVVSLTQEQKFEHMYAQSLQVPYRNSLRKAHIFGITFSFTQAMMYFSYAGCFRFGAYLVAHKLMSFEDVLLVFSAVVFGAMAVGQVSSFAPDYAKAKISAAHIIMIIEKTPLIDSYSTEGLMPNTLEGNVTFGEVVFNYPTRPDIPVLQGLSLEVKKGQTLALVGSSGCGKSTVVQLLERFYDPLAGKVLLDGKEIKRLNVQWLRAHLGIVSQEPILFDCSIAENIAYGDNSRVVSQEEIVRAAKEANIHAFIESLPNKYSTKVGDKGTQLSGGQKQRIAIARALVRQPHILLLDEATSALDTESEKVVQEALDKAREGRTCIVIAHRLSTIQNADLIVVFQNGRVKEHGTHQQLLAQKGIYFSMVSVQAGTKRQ

| SMILES | Ability to inhibit Pgp-mediated cell efflux of R123 (in words) (human Pgp [1]) | further results |
| --- | --- | --- |
| CCN(CC)CCCN(c1ccccc1)C1Cc2ccccc2C1 [Aprindine] | weak inhibitors | – |
| CC(C)[C@H]1CC[C@H](C(=O)N[C@H](Cc2ccccc2)C(=O)O)CC1 [Nateglinide] | not effective | – |
| O=C1Cc2cc(CCN3CCN(c4nsc5ccccc45)CC3)c(Cl)cc2N1 [Ziprasidone] | weak inhibitors | – |
| CN(C)CCC=C1c2ccccc2CCc2ccccc21 [Amitriptyline] | – | Pgp inhibitor classification (Pgp): inhibitor |
| O=C1CCc2ccc(OCCCCN3CCN(c4cccc(Cl)c4Cl)CC3)cc2N1 [Aripiprazole] | – | Ability to inhibit Pgp-mediated cell efflux of R123 (in words) (human Pgp [2]): efficacious Pgp inhibitors |
| C=CCc1ccccc1OCC(O)CNC(C)C (centres unmarked) [Alprenolol] | not effective | – |
| [Na+].[Na+].[Na+].[O]=[V]([O-])([O-])[O-] [Vi, Sodium orthovanadate] | – | IC50 (human Pgp [3]): ~700 µM |
| CC1(C)S[C@@H]2[C@H](NC(=O)[C@H](C(=O)O)c3ccsc3)C(=O)N2[C@H]1C(=O)O [Ticarcillin] | not effective | – |
